Measured values as given in ChEMBL document CHEMBL5576083, “Structure-Based Design and Synthesis of Covalent Inhibitors for Deubiquitinase and Acetyltransferase ChlaDUB1 of Chlamydia trachomatis” (J Med Chem, 2024).
Active and inactive are the calls of the source. The rule behind the calls is not given here.

Key:
[1] = test system: Chlamydia trachomatis; assay: Antimicrobial activity against Chlamydia trachomatis serovar L2 infected in human HeLa cells assessed as reduction in microbial progeny at 12.5 ug/ml measured after 48 hrs of post-infection by immunofluorescence analysis; type: functional; set-up: scale not given: the % may be the effect or the level left; details: dose 12.5 µg/ml
[2] = test system: Chlamydia trachomatis; assay: Antimicrobial activity against Chlamydia trachomatis serovar L2 infected in human HeLa cells assessed as reduction in inclusion area at 6.25 ug/ml measured after 24 hrs of post-infection by microscopic analysis; type: functional; details: dose 6.25 µg/ml
[3] = test system: Chlamydia trachomatis; assay: Antimicrobial activity against Chlamydia trachomatis serovar L2 infected in human HeLa cells assessed as reduction in microbial progeny at 3.13 ug/ml measured after 48 hrs of post-infection by immunofluorescence analysis; type: functional; set-up: scale not given: the % may be the effect or the level left; details: dose 3.13 µg/ml
[4] = test system: Chlamydia trachomatis; assay: Antimicrobial activity against Chlamydia trachomatis serovar L2 infected in human HeLa cells assessed as reduction in microbial progeny at 12.5 ug/ml measured after 24 hrs of post-infection by immunofluorescence analysis; type: functional; set-up: scale not given: the % may be the effect or the level left; details: dose 12.5 µg/ml
[5] = molecular target: Ubiquitin carboxyl-terminal hydrolase isozyme L1 (Homo sapiens) (UniProt P09936); assay: Inhibition of 6His-tagged human UCHL1 using Ub-Rh110Gly as fluorogenic substrate at 40 uM preincubated for 1 hr followed by substrate addition by plate reader analysis
[6] = molecular target: Ubiquitin carboxyl-terminal hydrolase 7 (Homo sapiens) (UniProt Q93009); assay: Inhibition of 6His-tagged human USP7 using Ub-Rh110Gly as fluorogenic substrate at 40 uM preincubated for 1 hr followed by substrate addition by plate reader analysis
[7] = molecular target: Ubiquitin carboxyl-terminal hydrolase 14 (Homo sapiens) (UniProt P54578); assay: Inhibition of human USP14 using Ub-Rh110Gly as fluorogenic substrate at 40 uM preincubated for 1 hr followed by substrate addition by plate reader analysis
[8] = test system: Chlamydia trachomatis; assay: Inhibition of C-terminal 6His-tagged Chlamydia trachomatis DUB1 (130 to 401 residues) expressed in Escherichia coli Rosetta 2 (DE3) cells using Ub-Rh110Gly as fluorogenic substrate at 40 uM preincubated for 1 hr followed by substrate addition by plate reader analysis

Ubiquitin carboxyl-terminal hydrolase isozyme L1 (Homo sapiens), sequence (P09936 whole entry, looked up): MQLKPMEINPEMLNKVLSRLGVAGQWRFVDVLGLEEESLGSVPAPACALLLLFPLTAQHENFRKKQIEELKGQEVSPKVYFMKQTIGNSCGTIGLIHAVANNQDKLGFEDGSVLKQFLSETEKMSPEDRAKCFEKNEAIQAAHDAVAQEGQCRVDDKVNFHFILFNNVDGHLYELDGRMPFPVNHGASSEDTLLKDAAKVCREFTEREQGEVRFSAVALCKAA
Ubiquitin carboxyl-terminal hydrolase 7 (Homo sapiens), sequence (Q93009 whole entry, looked up): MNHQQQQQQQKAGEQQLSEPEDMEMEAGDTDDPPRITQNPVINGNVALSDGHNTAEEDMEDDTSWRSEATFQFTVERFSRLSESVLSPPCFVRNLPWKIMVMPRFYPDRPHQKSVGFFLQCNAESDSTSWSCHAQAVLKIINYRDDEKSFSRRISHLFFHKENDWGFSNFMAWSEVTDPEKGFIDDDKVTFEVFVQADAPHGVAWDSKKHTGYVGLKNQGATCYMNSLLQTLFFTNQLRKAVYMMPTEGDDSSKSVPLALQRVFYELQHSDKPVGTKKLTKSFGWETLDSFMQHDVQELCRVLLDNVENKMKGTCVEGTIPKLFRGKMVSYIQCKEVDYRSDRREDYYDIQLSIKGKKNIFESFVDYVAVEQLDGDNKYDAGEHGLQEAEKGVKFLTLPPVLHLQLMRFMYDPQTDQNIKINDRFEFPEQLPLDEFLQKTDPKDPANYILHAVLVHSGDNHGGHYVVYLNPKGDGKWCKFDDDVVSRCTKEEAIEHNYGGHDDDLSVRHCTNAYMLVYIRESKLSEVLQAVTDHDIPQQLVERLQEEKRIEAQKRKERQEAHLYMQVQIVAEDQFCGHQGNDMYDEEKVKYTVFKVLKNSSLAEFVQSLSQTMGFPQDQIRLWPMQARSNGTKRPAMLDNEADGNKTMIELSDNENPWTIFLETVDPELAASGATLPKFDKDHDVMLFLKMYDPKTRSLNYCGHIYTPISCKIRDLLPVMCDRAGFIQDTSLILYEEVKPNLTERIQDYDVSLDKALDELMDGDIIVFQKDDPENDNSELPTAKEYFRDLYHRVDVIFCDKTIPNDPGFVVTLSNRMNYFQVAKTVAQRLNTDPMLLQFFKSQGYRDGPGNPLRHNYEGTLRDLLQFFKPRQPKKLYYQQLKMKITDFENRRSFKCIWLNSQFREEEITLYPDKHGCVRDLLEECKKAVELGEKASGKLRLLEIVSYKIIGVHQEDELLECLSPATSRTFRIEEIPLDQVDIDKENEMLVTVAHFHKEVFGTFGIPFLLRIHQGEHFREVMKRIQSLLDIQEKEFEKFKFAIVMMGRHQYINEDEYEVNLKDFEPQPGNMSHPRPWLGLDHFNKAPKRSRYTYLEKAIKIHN
Ubiquitin carboxyl-terminal hydrolase 14 (Homo sapiens), sequence (P54578 whole entry, the tested form may be a part): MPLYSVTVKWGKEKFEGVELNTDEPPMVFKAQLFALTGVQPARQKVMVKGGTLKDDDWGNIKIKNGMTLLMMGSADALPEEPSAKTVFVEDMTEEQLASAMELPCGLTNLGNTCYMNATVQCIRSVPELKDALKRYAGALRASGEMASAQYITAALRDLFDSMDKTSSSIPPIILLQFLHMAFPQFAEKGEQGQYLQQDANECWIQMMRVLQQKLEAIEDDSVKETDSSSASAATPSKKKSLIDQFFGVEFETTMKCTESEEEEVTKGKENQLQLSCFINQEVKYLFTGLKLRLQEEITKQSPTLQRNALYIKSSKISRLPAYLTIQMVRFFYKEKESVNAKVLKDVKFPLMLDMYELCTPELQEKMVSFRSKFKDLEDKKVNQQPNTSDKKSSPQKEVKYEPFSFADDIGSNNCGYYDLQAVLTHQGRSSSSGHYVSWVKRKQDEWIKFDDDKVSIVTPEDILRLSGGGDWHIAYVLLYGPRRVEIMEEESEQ

inhibition [5]: Active
inhibition [6]: inactive
inhibition [7]: inactive
SMILES: N#Cc1ncc(C(=O)NCc2ccc(C(=O)NC34CC5CC(CC(C5)C3)C4)cc2)cn1
Activity [1]: 98.5%
Activity [2]: 47.16 um2
Activity [3]: 11%
Activity [4]: 80%
inhibition [8]: Active
